{"source": "patent US7427599B2", "about": "“Biologically active peptide comprising Tyrosyl-seryl-valine(YSV)” (CMS Peptides Patent Holding Company Limited, priority 2003, dated 2008)", "key": {"[1]": {"system": "T lymphocytes (spleen lymphocyte suspension)", "experiment": "Effect of YSV on T lymphocyte transformation in vitro (ConA, MTT)", "format": "cell-based, BALB/c Mice", "settings": "for X ± SD (OD), T lymphocytes transformation: 68 hrs, MTT OD570 nm, positive control 0.14 ± 0.00", "method": "Healthy mice were sacrificed by cervical dislocation. The spleens were isolated and dispersed aseptically. The spleen lymphocyte suspension washed and adjusted to a cell density of 5×10^6/ml with RPMI-1640 culture medium containing 10% fetal bovine serum. YSV was diluted with RPMI-1640 culture medium into various concentrations: 2 μg/ml, 0.4 μg/ml, 0.08 μg/ml, 0.016 μg/ml. Con A working solution was adjusted to 1 mg/ml with RPMI-1640 culture medium.\nThe reagents were placed onto a 96 wells cell culture plate according to the following: 100 μl/well lymphocyte suspension, 20 μl/well ConA, and 100 μl/well YSV solution of various concentrations, 6 parallel wells for each concentration; 100 μl/well lymphocyte suspension and 120 μl/well RPMI-1640 culture medium (containing 10% FBS) were added to 12 parallel wells as negative control; 100 μl/well lymphocyte suspension, 100 μl/well RPMI-1640 culture medium (10% FBS) and 20 μl/well ConA were added to 12 parallel wells as positive control.\nThe cells were incubated for 68 hrs at 37° C., 5% CO2, and then pelleted by centrifugation at 150 g for 10 minutes. After the supernatant was removed, 50 μl/well MTT of 1 mg/ml in RPMI-1640 was added to the cell pellet and the cells were re-suspended by shaking for 2 minutes. The incubation was continued for 4 hours. The supernatant was removed after centrifugation at 150 g for 10 minutes. After blotted dry with filter paper, the cells were mixed with 120 μl 40 mM HCl-2-propanol and shaken for 3 minutes. OD570 nm of each well referenced at 630 nm was obtained with an ELISA reader."}, "[2]": {"system": "human leukemia K562 cells", "experiment": "Proliferation of cultured human leukemia K562 cells in vitro (MTT)", "format": "cell-based", "settings": "for % inhibition / OD value: 48 hours; for OD value: MTT OD570 nm, negative control 0.43 ± 0.01", "method": "A human leukemia K562 cell at logarithmic growth phase was adjusted to density of 5×10^4/ml with RPMI-1640 culture medium containing 10% FBS. 100 μl/well of the cell were placed onto a 96 wells cell culture plate. The cells were incubated for 24 hours at 37° C., 5% CO2. The experiment included […] with different concentrations of YSV in culture medium and a negative control group with culture medium only. The final concentrations of YSV were 40 μg/ml, 20 μg/ml, 10 μg/ml, and 5 μg/ml. Each group contained five parallel wells. 100 μl/well testing solution was added to the treated cells. The cells were incubated for 48 hours at 37° C., 5% CO2.\nThe cells were then pelleted by centrifugation at 150 g for 10 minutes. The supernatant was removed and 100 μl/well MTT solution of 0.5 mg/ml in RPMI-1640 was added to the cell pellets and the cells were re-suspended by shaking for 2 minutes. Incubation was continued for 4 hours. The supernatant was removed after a centrifugation at 150 g for 10 minutes. After blotted dry by filter paper, 100 μl/well 40 mM HCl-2-propanol was added to the cell pellets and shaken for 3 minutes. OD570 nm of each well referenced at 630 nm was obtained by using ELISA reader."}, "[3]": {"system": "A549 human pulmonary carcinoma", "experiment": "A549 human pulmonary carcinoma xenograft in nude mice", "format": "in vivo, BALB/c (nu/nu) athymic nude mice", "settings": "for Tumor inhibition index (%) / Tumor volume (cm^3) / Tumor weight: 40 days", "method": "Healthy BALB/c (nu/nu) athymic nude mice (SPF, 4-5 weeks old, weighting 18-22 g) were purchased from Shanghai Tumor Academe of China Medical Academy of Science. In the first experiment, female was used. In the second experiment, male was used.\nSelect A549 human pulmonary carcinoma xenografts of diameter longer than 1 cm with good growth on nude mice. Aseptically excise the tumor mass, cut into pieces of 2-4 mm^3 and submerged in RPMI1640. Pulmonary carcinoma nude mice model was prepared by transplanting the tumor mass hypodermally to the back of healthy nude mice near to the neck via an incision at the ventral thorax.\nThe nude mice bearing A549 xenografts were randomly divided into groups of: saline control (0.2 ml/day), YSV groups of different dosages, and Cy control (0.2 mg/kg/day). The test substances were dissolved in 0.2 ml saline and administered intraperitoneally to the mice starting from the day after the transplantation, once per day for 40 consecutive days.\nThe general condition of the mice was observed daily. The mice were weighed every 3-4 days and the volume of the tumor was measured:\nV=(⅙)πXYZ, where X, Y, and Z were the diameters of the tumor on the 3 planes.\nThe day after the last injection, the tumors were excised, weighted, and the volume measured. The tumors were examined for signs of necrosis. Tumor inhibition index=(average tumor weight of saline group−average tumor weight of test group)/average tumor weight of saline group×100%)\nStatistical analysis was performed with SPSS software using one-way ANOVA analysis."}}, "note": "Marks after values point to notes of the source that are not given here. Peptide text beside a SMILES is read from it.", "data": [{"compound": "CC(C)[C@H](NC(=O)[C@H](CO)NC(=O)[C@@H](N)Cc1ccc(O)cc1)C(=O)O", "note": "[YSV, L-Tyrosyl-L-seryl-L-valine] (H-Tyr-Ser-Val-OH)", "values": [{"measurement": "stimulation of T lymphocyte transformation activity in vitro (conclusion)", "setting": "[1]; 0.016 μg/ml to 2 μg/ml, p<0.001", "value": "able to stimulate the T lymphocyte transformation activity in vitro with statistical significance"}, {"measurement": "X ± SD (OD), T lymphocytes transformation", "setting": "[1]; YSV 0.016 μg/ml with ConA", "value": "0.21 ± 0.01", "unit": "OD"}, {"measurement": "X ± SD (OD), T lymphocytes transformation", "setting": "[1]; YSV 0.08 μg/ml with ConA", "value": "0.23 ± 0.00", "unit": "OD"}, {"measurement": "X ± SD (OD), T lymphocytes transformation", "setting": "[1]; YSV 0.4 μg/ml with ConA", "value": "0.18 ± 0.01", "unit": "OD"}, {"measurement": "X ± SD (OD), T lymphocytes transformation", "setting": "[1]; YSV 2 μg/ml with ConA", "value": "0.18 ± 0.00", "unit": "OD"}, {"measurement": "inhibition of growth of K562 cells in vitro (conclusion)", "setting": "[2]; 5 μg/ml to 40 μg/ml, p<0.05", "value": "able to inhibit the growth of human leukemia K562 cells in vitro"}, {"measurement": "% inhibition", "setting": "[2]; 5 μg/ml", "value": 9.7, "unit": "%"}, {"measurement": "OD value", "setting": "[2]; 5 μg/ml", "value": "0.39 ± 0.01"}, {"measurement": "% inhibition", "setting": "[2]; 10 μg/ml", "value": 9.3, "unit": "%"}, {"measurement": "OD value", "setting": "[2]; 10 μg/ml", "value": "0.39 ± 0.01"}, {"measurement": "% inhibition", "setting": "[2]; 20 μg/ml", "value": 11.3, "unit": "%"}, {"measurement": "OD value", "setting": "[2]; 20 μg/ml", "value": "0.38 ± 0.00"}, {"measurement": "% inhibition", "setting": "[2]; 40 μg/ml", "value": 10.8, "unit": "%"}, {"measurement": "OD value", "setting": "[2]; 40 μg/ml", "value": "0.38 ± 0.00"}, {"measurement": "Tumor inhibition index (%)", "setting": "[3]; experiment 1, female nude mice, 160 μg/kg/day i.p.", "value": 32.8, "unit": "%"}, {"measurement": "Tumor volume (cm^3)", "setting": "[3]; experiment 1, female nude mice, 160 μg/kg/day i.p., saline 1.87 ± 1.10", "value": "0.92 ± 0.79* cm^3"}, {"measurement": "Tumor weight", "setting": "[3]; experiment 1, female nude mice, 160 μg/kg/day i.p., saline 2.49 ± 1.02", "value": "1.67 ± 0.97", "unit": "g"}, {"measurement": "Tumor inhibition index (%)", "setting": "[3]; experiment 1, female nude mice, 320 μg/kg/day i.p.", "value": 32.2, "unit": "%"}, {"measurement": "Tumor volume (cm^3)", "setting": "[3]; experiment 1, female nude mice, 320 μg/kg/day i.p., saline 1.87 ± 1.10", "value": "0.84 ± 0.45* cm^3"}, {"measurement": "Tumor weight", "setting": "[3]; experiment 1, female nude mice, 320 μg/kg/day i.p., saline 2.49 ± 1.02", "value": "1.69 ± 0.70", "unit": "g"}, {"measurement": "Tumor inhibition index (%)", "setting": "[3]; experiment 1, female nude mice, 640 μg/kg/day i.p.", "value": 37.4, "unit": "%"}, {"measurement": "Tumor volume (cm^3)", "setting": "[3]; experiment 1, female nude mice, 640 μg/kg/day i.p., saline 1.87 ± 1.10", "value": "1.17 ± 0.84", "unit": "cm^3"}, {"measurement": "Tumor weight", "setting": "[3]; experiment 1, female nude mice, 640 μg/kg/day i.p., saline 2.49 ± 1.02", "value": "1.56 ± 1.08", "unit": "g"}, {"measurement": "Tumor inhibition index (%)", "setting": "[3]; experiment 2, male nude mice, 160 μg/kg/day i.p.", "value": 50.8, "unit": "%"}, {"measurement": "Tumor volume (cm^3)", "setting": "[3]; experiment 2, male nude mice, 160 μg/kg/day i.p., saline 1.34 ± 0.69", "value": "0.78 ± 0.41", "unit": "cm^3"}, {"measurement": "Tumor weight", "setting": "[3]; experiment 2, male nude mice, 160 μg/kg/day i.p., saline 1.51 ± 0.79", "value": "0.74 ± 0.31", "unit": "g"}, {"measurement": "inhibition of growth of A549 xenograft in nude mice (conclusion)", "setting": "[3]; suitable dosages, p<0.05 vs saline", "value": "able to inhibit the growth of nude mice-transplanted A549 human pulmonary carcinoma xenograft"}]}]}
